Results on three molecules are retold here after patent US10130604B2, “Composition and method for treating neurodegenerative disease” (priority 2012, dated 2018).

Series [1] has as its system Y39C-α-synuclein transgenic mice. Briefly: Rotarod test in Y39C-α-synuclein transgenic mice treated with glycerol phenylbutyrate. It is filed as in vivo, mouse. How it is done:
Transgenic mice were genetically programmed from birth to develop a “Parkinson-Plus” condition by depositing an abnormal form of a protein called Y39C-α-synuclein in neurons of the brain under control of the Thy1 promoter (see Zhou et al., J. Biol. Chem., 2008, 283, 9863-70). […] After 6 weeks of daily treatment, animals were placed on a rotating rod (Rotarod) at different speeds for up to 5 minutes. Animals which could not keep up with the turning rod fell off. The time they were able to stay on the rod was noted. […] These differences were statistically significant at the higher speeds, 21 and 26 rpm. At the highest speed, 33 rpm, all animals fell off the rod after about 50 seconds.

The conditions of series [2]: gut; cited from earlier work.
For a further series, the system named is human DJ-1 promoter. In words: Human DJ-1 promoter-luciferase reporter assay in HEK293 cells. Conditions: 48 hr treatment. The class given is cell-based. The source says: The human DJ-1 2 kb promoter area was amplified by PCR using genomic DNA from HEK293 cells. The human DJ-1 promoter was then cloned into the pGLuc-Basic vector, and that reporter vector was transfected into HEK293 cells.

Another series deals with dopamine neurons. As to conditions: vs MPTP alone. How it is done: Treatment with PB continued after MPTP injection. […] One week after MPTP lessoning, mouse brain tissues were dissected for Western blot and HPLC analysis. Mouse striatum was frozen in dry ice, sonicated in ice-cold 0.2 m perchloric acid and centrifuged at 15,000 g for 15 min at 4° C. An aliquot (5 μL) of the supernatant solution was analyzed by HPLC equipped with an electrochemical detector (CoulArray system ESA Model 5600; ESA, Boston, Mass., USA), a pump (ESA Model 580) set at 1.5 mL/min, and a reverse-phase C18 column (3 μm, 100 Å 4.6 mm, Waters, Milford, Mass., USA). The mobile phase was composed of 100 mm citric acid, 2% methanol, 1 mm EDTA and 5 mg/L sodium octyl sulfate (pH 3.0).

For series [3], the system named is N27 cells.
The subject of series [4] is N27 cells. Conditions: two days pretreatment, then A53T α-synuclein adenovirus two days.
In series [5] the test system is N27 cells. As to conditions: shDJ-1 N27 cells; H2O2 75 or 100 μM, 6-OHDA 60 or 80 μM.
Series [6] has as its system Y39C α-synuclein transgenic mice. Conditions: 1000 mg/L drinking water, 6 and 12 weeks.
Description: The [MUT] α-synuclein transgenic mice were divided into younger (6-8 months=Young Tg) and older (10-12 months=Old Tg) groups. Each group received PB (1000 mg/L, 5.4 mM) or vehicle (NaCl) in the drinking water for 3 months. Animals were tested for rotarod and water maze performance after 6-weeks and 12-weeks of treatment. Mice were tested for their ability to run on a 3 cm diameter rotating rod (rotarod) at speeds ranging from 3 to 33 rpm. The protocol consisted of two phases: habituation (Day 1) and rotated training/testing (Days 2 to 5). During habituation on Day 1, the mice were trained to remain on the rotarod at 3 rpm. […] Each test day, the speed was increased, reaching 33 rpm by Day 5. The time the mice spent on the rotarod without falling was recorded for each trial.
For series [7] the test system is unchanged. As to conditions: 1000 mg/L drinking water, 6 and 12 weeks. The source holds these as a separate data set.
Description: The [MUT] α-synuclein transgenic mice were divided into younger (6-8 months=Young Tg) and older (10-12 months=Old Tg) groups. Each group received PB (1000 mg/L, 5.4 mM) or vehicle (NaCl) in the drinking water for 3 months. Animals were tested for rotarod and water maze performance after 6-weeks and 12-weeks of treatment. Spatial learning was assessed using the Morris water maze. The maze included a circular tank (120 cm in diameter) filled to 10 cm below the edge of the tank with 27° C. water that was made opaque by the addition of non-toxic black ink. A circular escape platform (10 cm in diameter) was located 1 cm below the surface of the water in a constant location in the northwest quadrant of the tank. Mice were first acclimated to the maze during three trial habituation sessions. Each testing session consisted of three consecutive days with four trials per day. The platform was invisible in the pool, and mice were allowed to swim for 60 sec before being returned to the home cage. The latency from all training and testing sessions was collected.
The next series relates to Nrf2. Conditions: N27 dopamine neurons.
Another series deals with Vamp2. Conditions: A53T human α-synuclein overexpression plus phenylbutyrate.
The conditions of series [8]: cited from earlier work.
In series [9] the test system is DJ-1. As to conditions: N27 cells, two days treatment, Western blot.
Description: Dopaminergic cells derived from embryonic day 12 rat mesencephalon and immortalized with the SV40 large T antigen designated 1RB3AN27, (N27 cells) were used (37). […] Cells were lysed in a dissociation buffer containing 50 mM Tris-HCl, 10 mM NaCl, 0.1% Triton X-100 plus protease inhibitor cocktail (Roche). […] Protein concentration was determined by the BCA method (Pierce). Fifty μg of protein was separated on 10% SDSPAGE gel and transferred to a nitrocellulose membrane. […] Blots were incubated with HRP-conjugated secondary antibody (1:10,000; Jackson Immune Research), followed by chemiluminescent detection (Perkin Elmer life Sciences) (31,38).
Series [10] relates to DJ-1. Conditions: HEK293 reporter cells, 48 hr treatment.
Description: Cells were lysed in a dissociation buffer containing 50 mM Tris-HCl, 10 mM NaCl, 0.1% Triton X-100 plus protease inhibitor cocktail (Roche). […] Protein concentration was determined by the BCA method (Pierce). Fifty μg of protein was separated on 10% SDSPAGE gel and transferred to a nitrocellulose membrane. After blocking nonspecific binding, membranes were incubated with antibodies to DJ-1 (1:5000, Chemicon), α-synuclein (1:3000, Transduction Laboratories), TH (1;2000, PelFreez), and β-actin (1:4000, Sigma). Blots were incubated with HRP-conjugated secondary antibody (1:10,000; Jackson Immune Research), followed by chemiluminescent detection (Perkin Elmer life Sciences) (31,38).
The luciferase assay was based on the pGLuc-Basic vector (NEB). The human DJ-1 2 kb promoter area was amplified by PCR using genomic DNA from HEK293 cells. The human DJ-1 promoter was then cloned into the pGLuc-Basic vector, and that reporter vector was transfected into HEK293 cells. G418 (200 μg/ml) was applied to the cultures, and resistant clones were selected and assayed for luciferase activity. […] Culture medium samples (20 μl) were incubated with Gaussia luciferase assay substrate (NEB), and luminescence was measured in a 96-well plate reader (BioTek Synergy HT Multi-Mode microplate reader).
Series [11] has as its system DJ-1. As to conditions: C57BL/6 mice, drinking water, two weeks, vs control.
Description: Cells were lysed in a dissociation buffer containing 50 mM Tris-HCl, 10 mM NaCl, 0.1% Triton X-100 plus protease inhibitor cocktail (Roche). The mouse brain tissues were dissected and quickly frozen in dry ice. Tissues were thawed on ice and homogenized in dissociation buffer with protease inhibitors (Roche). Protein concentration was determined by the BCA method (Pierce). Fifty μg of protein was separated on 10% SDSPAGE gel and transferred to a nitrocellulose membrane. After blocking nonspecific binding, membranes were incubated with antibodies to DJ-1 (1:5000, Chemicon), α-synuclein (1:3000, Transduction Laboratories), TH (1;2000, PelFreez), and β-actin (1:4000, Sigma). Blots were incubated with HRP-conjugated secondary antibody (1:10,000; Jackson Immune Research), followed by chemiluminescent detection (Perkin Elmer life Sciences) (31,38).
Adult C57BL/6 mice (4-6 months old) were treated with PB and SB in drinking water for 14 days. The PB and SB were dissolved in water at concentrations of 500, 1000, 1500, and 2000 mg/L. Mice typically drink 4-5 ml of water per day, and their drinking volumes were not affected by the addition of PB or SB. Control animals received water with sodium chloride added to the same molarity as the sodium in the drug-treated animals. […]
The subject of a further series is α-synuclein. As to conditions: C57BL/6 mice, drinking water, two weeks.
The mark [12] stands for this setting: 1000 mg/L drinking water, Western blot.

Structures are written as SMILES. Where two headings read alike, the source gives them in different places.

In the case of `O=C(CCCc1ccccc1)OCC(COC(=O)CCCc1ccccc1)OC(=O)CCCc1ccccc1` [glycerol phenylbutyrate, Glycerol phenylbutyrate], the “time able to stay on the rotating rod” value in [1] (6 weeks daily treatment, vs glycerol, significant at 21 and 26 rpm) is “able to stay on the rod longer”. Also, the “time until animals fell off the rod at the highest speed” value in series [1] (33 rpm, all animals) is “about 50 seconds”. In addition, the “metabolism of the pro-drug” value in series [2] is given as “metabolized in the gut to produce the active compound phenylbutyrate”.

Take `O=C([O-])CCCc1ccccc1.[Na+]` [sodium phenylbutyrate]: the luciferase activity entry in the series on human DJ-1 promoter is reported as “increased luciferase activity”. Also, in the series on dopamine neurons (1000 mg/L drinking water two weeks before MPTP), the “striatal dopamine levels (HPLC)” value is on record as “significantly increased striatal dopamine levels”. In the series with dopamine neurons (setting [12]), the “DJ-1 levels in striatum” value is reported as “significantly increased” and the “tyrosine hydroxylase protein levels in striatum” value is “increased”. The “numbers of TH positive dopamine neurons in the substantia nigra” value in the series with dopamine neurons (1000 mg/L drinking water) was “significantly higher numbers of TH positive dopamine neurons”. Moreover, the “cell viability in naïve N27 cells” value in the series with N27 cells [3] (H2O2 75 or 100 μM, 6-OHDA 60 or 80 μM) is recorded as “significantly improved cell viability”. The cell survival entry in the series on N27 cells [3] (cells exposed to H2O2 and A53T, not shown) was “substantially better”. Besides, in the series with N27 cells [4], the “cell viability after A53T mutant α-synuclein expression” value is on record as “increased cell viability” and the “number of cells with α-synuclein aggregates” value is reported as “reduced the number of cells with α-synuclein aggregates”. In addition, the “neuroprotective effect against H2O2 and 6-OHDA-induced toxicity after DJ-1 knockdown” value in the series on N27 cells [5] is reported as “effectively abolished the neuroprotective effect”. In addition, in [6], the “motor function (rotarod), Young Tg mice” value is given as “did not change motor function”. Also, the “motor function (rotarod), Old Tg mice” value in series [6] (vs vehicle) is “significantly improved motor function”. Further, the “water maze performance, Young Tg mice” value in series [7] is reported as “did not change water maze performance”. Also, the “water maze function, Old Tg mice” value in series [7] (vs vehicle) is reported as “prevented the age-related decline in water maze function”. In addition, the “increase in Nrf2 mRNA” value in the series on Nrf2 came out at 50 fold. Further, the “increase in Lamp2 gene expression, with A53T” value with Lamp2 (A53T expression plus phenylbutyrate) came to 400 fold. Further, the “increase in Lamp2 expression” value with Lamp2 (N27 dopamine neurons, drug alone) is recorded as “about 30 fold”. Also, the “increase in Lamp2 expression, pretreatment followed by H2O2” value with Lamp2 (pretreatment 48 hr, then H2O2) is recorded as 200 fold. For the same molecule, the “Vamp2 overexpression, A53T with addition of phenylbutyrate” value in the series with Vamp2 is on record as 200 fold. The half-life in vivo in series [8] was 50 min.

Consider `CCCC(=O)[O-].[Na+]` [sodium butyrate], for which the luciferase activity result with human DJ-1 promoter is on record as “increased luciferase activity”. In addition, the DJ-1 protein levels in the series with DJ-1 [9] was 300 % of control; in the series on DJ-1 [10] it was “increased”. The “brain DJ-1 levels” value in the series on DJ-1 [11] is reported as “significantly increased DJ-1 levels”. Also, the “α-synuclein concentrations in brain” value in the series with α-synuclein is on record as “not changed”.
